“And” between values parts separate entries of the source, which are not always exact repeats. Identical values can stand only once. {Fam-L(2)} = N-terminal fluorescein (Fam) label attached through linker L(2); {L(1)} = linker L(1) as defined below the publication's; {Fam} = fluorescein (FAM) label at the N-terminus; {Lys-NH2} = C-terminal lysine amide
Key:
complementary DNA = experiment: Binding affinity for DNA: Tm between PNA and complementary DNA (UV absorbance at 260 nm); conditions: 4 μM PNA oligomer and 4 μM DNA, aq buffer pH 7.16, 10 mM sodium phosphate, 100 mM NaCl
Method: (§1) PNA oligomers of this invention were evaluated for their binding affinity for DNA by measuring Tm values as follows.
(§2) 4 μM PNA oligomer and 4 μM DNA were mixed in aq buffer (pH 7.16, 10 mM sodium phosphate, 100 mM NaCl), and incubated at 90° C. for a few minutes and slowly cooled down to RT. Then the solution was transferred into a 4 ml quartz cuvette and the cuvette was tightly sealed. The cuvette was mounted on an Agilent 8453 UV/Visible spectrophotometer and absorbance changes at 260 nm were recorded with increasing the temperature of the cuvette by either 0.5 or 1.0° C. per minute. From the absorbance vs temperature curve, the temperature showing the largest increase rate in absorbance was read out as the melting temperature Tm between PNA and DNA. DNAs for Tm measurement were purchased either from Bioneer, Inc. (www.bioneer.com, Daejon, South Korea) or from Ahram Biosystems (www.ahrambio.com, Seoul, South Korea), and used without further purification.
(§3) FIG. 3 provides graphs of absorbance changes with temperature for Oligo 17 against complementary or mismatch DNA. For sequences of the mismatch DNAs against Oligo 17, refer to Table 2. In FIG. 3, there is a transition temperature in each curve, which was read out as the Tm value for the curve.
(§4) Tm values are provided in Table 2 for PNA oligomers of this invention. These Tm values are presented for illustrative purposes only and should not be interpreted as a restriction to this invention.

mismatch DNA = experiment: Binding affinity for DNA: Tm between PNA and mismatch DNA (UV absorbance at 260 nm); conditions: for decreases in Tm with single base mismatches: single base mismatch versus complementary DNA
Method: as §1, §2, §3, §4

HeLa cells = experiment: Cell penetration of fluorescein-tagged PNA oligomers, confocal fluorescence microscopy; type: cell-based, human
Method: (§5) In order to evaluate the cell penetration ability of PNA oligomers of this invention, cancer cells of human origin were treated with PNA oligomers covalently tagged with fluorescein. The applied method is provided in brief as follows.
(§6) To each cover glass (autoclaved) placed in each well of a 24-well plate, were seeded 20,000˜100,000 cells depending on the growth rate of the cell line used, and the cells were cultured at 37° C. and 5% CO2 for 16 to 24 h. Then the medium was replaced with 500 μl fresh Opti-MEM medium (with or without 1% FBS), to which was added an aliquot of aq stock solution of a PNA oligomer covalently tagged with fluorescein. After cells were cultured for a designated interval, the cells were washed with PBS, and fixed by incubating in 3.7% or 4% paraformaldehyde. The cells were thoroughly washed several times with PBS or PBS containing 0.1% Tween-20. Then the cover glass was mounted onto a slide glass using a drop of mounting solution and sealed with nail polish for confocal fluorescence microscopy. Fluorescence images were taken either on a Zeiss LSM 510 confocal microscope (Germany) at 63× objective or on a Nikon C1Si confocal microscope at 40× objective.

A549 cells = experiment: as above; type: cell-based, human; conditions: 2 μM, 24 h, without FBS, 40× objective
Method: as §5, §6

JAR cells = experiment: as above; type: cell-based, human; conditions: 2 μM, 24 h, without FBS, 40× objective
Method: as §5, §6

mdm2 = experiment: Antisense example: inhibition of ribosomal synthesis of mdm2 in JAR cells, western blotting; type: cell-based, human; conditions: 15 h
Method: The following antisense example is presented for illustrative purposes only and should not be interpreted as a restriction to the present invention.
JAR cells (ATCC catalog #HTB-144) were grown in RPMI-1640 medium supplemented with 10% FBS and 1% penicillin-streptomycin at 37° C. and 5% CO2. Cells were then seeded into each well of a 12-well plate containing 1 ml of the same medium, and treated with an aliquot of an aqueous stock solution of Oligo 9 or […] of a designated concentration. Then the cells were incubated at 37° C. and 5% CO2 for 15 h.
The cells in each well were washed with cold PBS and treated with 80 μl RIPA buffer containing 1% protease inhibitors cocktail, and the plate was incubated at 4° C. and agitated slowly for 15 min. The content of each well was scraped out into a microtube. The microtube was incubated in ice for 10 min and centrifuged at 10,000 g. The resulting supernatant was collected and subjected to protein quantification by Bradford assay and western blot analysis. For electrophoresis, 20 μg of protein was loaded onto each lane of the gel in a minigel apparatus, separated and transferred onto a PVDF membrane (0.45μ, Millipore). The primary mdm2 antibody used for western blotting was SC-965 (Santa Cruz Biotechnology).
FIG. 9 provides western blotting results for JAR cells treated with 5 μM or 10 μM Oligo 9, 5 μM or 10 μM Oligo 10, cotreatment with the oligomers at 5 μM or 10 μM each, and blank (no oligomer treatment).

[1] = 5 μM, 1, 2, 3 and 24 h, without FBS, 63× objective
[2] = 2 μM, 12 h, without FBS, 40× objective

CA(2O2)T-A(2O2)GT-A(2O2)TA-A(2O2)GT-NH2 (CATAGTATAAGT; chemistry not fully specified) [Oligo 18, modified PNA oligomer]
Tm between PNA and complementary DNA (complementary DNA): 66 °C

CA(3)T-A(3)GT-A(3)TA-A(3)GT-NH2 (CATAGTATAAGT; chemistry not fully specified) [Oligo 12]
Tm between PNA and complementary DNA (complementary DNA): 60 °C

CA(4)T-A(4)GT-A(4)TA-A(4)GT-NH2 (CATAGTATAAGT; PNA-like chain with modified monomers A(5)/A(4), C-terminal amide, codes undefined, further chemistry not given here) [Oligo 13, modified PNA oligomer]
Tm between PNA and complementary DNA (complementary DNA): 64 °C

CA(5)T-A(5)GT-A(5)TA-A(5)GT-Lys-NH2 (CATAGTATAAGT; modified PNA, C-terminal Lys-NH2, chemistry not fully specified) [Oligo 17, modified PNA oligomer]
Tm between PNA and mismatch DNA (mismatch DNA; mismatch (T → A), DNA ACT-TAA-ACT-ATG): 59 °C
Tm between PNA and mismatch DNA (mismatch DNA; mismatch (T → C), DNA ACT-TAC-ACT-ATG): 61 °C
Tm between PNA and mismatch DNA (mismatch DNA; mismatch (T → G), DNA ACT-TAG-ACT-ATG): 58 °C
decreases in Tm with single base mismatches (mismatch DNA): 11˜14 °C
Tm between PNA and complementary DNA (complementary DNA): 72 °C

CA(5)T-A(5)GT-A(5)TA-A(5)GT-NH2 (CATAGTATAAGT; chemistry not fully specified) [Oligo 14, modified PNA oligomer]
Tm between PNA and complementary DNA (complementary DNA): 69 °C

CA(7)T-A(7)GT-A(7)TA-A(7)GT-NH2 (CATAGTATAAGT; chemistry not fully specified) [Oligo 15, modified PNA oligomer]
Tm between PNA and complementary DNA (complementary DNA): 71 °C

CAT-AGT-ATA-AGT-Lys-NH2 (CATAGTATAAGT; all peptide nucleic acid (PNA), 3' {Lys-NH2}) [Oligo 16, unmodified PNA oligomer, reference compound]
Tm between PNA and complementary DNA (complementary DNA): 56 °C

CAT-AGT-ATA-AGT-NH2 (CATAGTATAAGT; chemistry not fully specified) [Oligo 27, unmodified PNA oligomer, reference compound]
Tm between PNA and complementary DNA (complementary DNA): 55 °C

Fam-L(1)L(1)-TGC(1O3)-TAC(1O3)-TAC(1O3)-TG-Lys-NH2 (TGCTACTACTG; Fam-L(1)L(1) N-term, Lys-NH2, modified PNA, chemistry not fully specified) [Oligo 1, fluorescein-tagged modified PNA oligomer]
cell penetration, fluorescence intensity (HeLa cells; 1 μM, 6 or 24 h, with 1% FBS, 40× objective): fluorescence intensity is faint even at 24 h
cell penetration, fluorescence intensity (HeLa cells; [1]): fluorescence intensity is clear and becomes intense over 24 h

Fam-L(1)L(1)-TGC-TAC-TAC-TG-Lys-NH2 (TGCTACTACTG; all peptide nucleic acid (PNA), 5' {Fam}-{L(1)}-{L(1)}, 3' {Lys-NH2}) [Oligo 2, fluorescein-tagged 'unmodified' PNA oligomer, reference compound]
cell penetration, fluorescence intensity (HeLa cells; [1]): fluorescence intensity is faint

Fam-L(2)-CA(5)T-A(4g)GT-A(4g)TA(5)-AGT-Lys-NH2 (CATAGTATAAGT; Fam-L(2) label, modified PNA, Lys-NH2, chemistry not fully specified) [Oligo 24, fluorescein-tagged modified PNA oligomer]
Tm between PNA and complementary DNA (complementary DNA): 70 °C

Fam-L(2)-TG(5)G-C(1O2)AA-C(1O2)TG-A(5)T-Lys-NH2 (TGGCAACTGAT; Fam-L(2) label, modified PNA, Lys-NH2, chemistry not fully specified) [Oligo 21, fluorescein-tagged modified PNA oligomer]
cell penetration, fluorescence intensity (HeLa cells; [2]): fluorescence intensity is apparent
cell penetration, fluorescence intensity (HeLa cells; 2 μM, 24 h, without FBS, 40× objective): significantly stronger than that in FIG. 7(e)
cell penetration, fluorescence intensity (A549 cells): fluorescence intensity is strong
cell penetration, fluorescence intensity (JAR cells): fluorescence intensity is strong

Fam-L(2)-TGG-CAA-CTG-AT-Lys-NH2 (TGGCAACTGAT; all peptide nucleic acid (PNA), 5' {Fam-L(2)}, 3' {Lys-NH2}) [Oligo 28, fluorescein-tagged 'unmodified' PNA oligomer, reference compound]
cell penetration, fluorescence intensity (HeLa cells; [2]): no significant fluorescence intensity
cell penetration, fluorescence intensity (A549 cells): no significant fluorescence intensity
cell penetration, fluorescence intensity (JAR cells): no significant fluorescence intensity

GC(1O2)A-C(1O2)AT-TTG-C(1O2)CT-NH2 (GCACATTTGCCT; chemistry not fully specified) [Oligo 10, modified PNA oligomer]
inhibition of ribosomal synthesis of mdm2 (mdm2; 5 μM): significantly inhibited
inhibition of ribosomal synthesis of mdm2 (mdm2; 10 μM): significantly inhibited

GC(2O2)A-C(2O2)AT-TTG-C(2O2)CT-NH2 (GCACATTTGCCT; chemistry not fully specified) [Oligo 9]
inhibition of ribosomal synthesis of mdm2 (mdm2; 5 μM): significantly inhibited
inhibition of ribosomal synthesis of mdm2 (mdm2; 10 μM): significantly inhibited

GCA-CAT-TTG-CCT-Lys-NH2 (GCACATTTGCCT; all peptide nucleic acid (PNA), 3' {Lys-NH2}) [Oligo 11, unmodified PNA oligomer, reference compound]
Tm between PNA and complementary DNA (complementary DNA): 58 °C and 59 °C

TG(5)G-C(1O2)AA-C(1O2)TG-A(5)T-Lys-NH2 (TGGCAACTGAT; modified PNA, C-terminal Lys-NH2, chemistry not fully specified) [Oligo 20, modified PNA oligomer]
Tm between PNA and mismatch DNA (mismatch DNA; mismatch (G → A), DNA ATC-AAT-TGC-CA): 65 °C
Tm between PNA and mismatch DNA (mismatch DNA; mismatch (G → T), DNA ATC-ATT-TGC-CA): 62 °C
decreases in Tm with single base mismatches (mismatch DNA): 19˜22 °C
Tm between PNA and complementary DNA (complementary DNA): 84 °C

TGC(1O3)-TAC-TAC(1O3)-TG-Lys-NH2 (TGCTACTACTG; modified PNA, C-terminal Lys-NH2, chemistry not fully specified) [Oligo 3, modified PNA oligomer]
Tm between PNA and complementary DNA (complementary DNA): 65 °C

TGC(2O2)-TAC-TAC(2O2)-TG-Lys-NH2 (TGCTACTACTG; modified PNA, monomer codes such as C(1O3), A(5) undefined, C-terminal Lys-NH2, further chemistry not given here) [Oligo 8, modified PNA oligomer]
Tm between PNA and complementary DNA (complementary DNA): 68 °C

TGC-TAC(1O3)-TAC-TG-Lys-NH2 (TGCTACTACTG; modified PNA, monomer codes such as C(1O3), A(5) undefined, C-terminal Lys-NH2, further chemistry not given here) [Oligo 4, modified PNA oligomer]
Tm between PNA and complementary DNA (complementary DNA): 61 °C

TGC-TAC-TAC-TG-Lys-NH2 (TGCTACTACTG; all peptide nucleic acid (PNA), 3' {Lys-NH2}) [Oligo 5, unmodified PNA oligomer, reference compound]
Tm between PNA and complementary DNA (complementary DNA): 55 °C

From patent US8680253B2 (OliPass Corporation, priority 2008, dated 2014)
